# From a melting point compilation (Tetko et al.)
row,melting point [°C],Structure (SMILES)
1,59 to 61,Sc1cc(Cl)cc(Cl)c1
2,242,O=C(Nc1ccccc1)Nc1ccccc1
3,164,Cc1c(C)c(Br)c2ccccc2c1Br
4,249,OCC(CO)(CO)COCC(CO)(CO)COCC(CO)(CO)CO
5,131,O=c1c(=O)c2ccccc12
6,176 to 177,NS(=O)(=O)c1c(Cl)nc2sccn12
7,173,COc1cc(/C=C/C(=O)O)ccc1O
8,49 to 50,CN(C)S(C)(=O)=O
9,96,O=C(O)C(O)c1cccc(F)c1 (centres undefined)
10,128,O=C1c2ccccc2CC2c3ccccc3C=CN12 (centres undefined)
11,216,Cc1cc(C)c2c(=O)[nH]n(C)c2n1
12,210,CC(C)(C)C1=NNC(=O)C1
13,146 to 148,COc1ccc(Br)c(OC)c1C(=O)O
14,174 to 175,Cc1cc(C(=O)O)ccc1O
15,99 to 100,ClCC1CCN(c2ncnc3ccsc23)CC1
16,151,CC1NC(=O)NC1=O (centres undefined)
17,82,CCOC(=O)C(C#N)=C(SCc1ccccc1)SCc1ccccc1
18,227 to 230,CSc1sc(C(=O)O)c(Cl)c1S(=O)(=O)C(C)C
19,96.5,CNC(=O)COc1ccccc1OCC(O)CNC(C)(C)C (centres undefined)
20,240,NC(CO)C(=O)O (racemic)
21,72,Clc1cncc(Cl)c1Cl
22,92,Cc1ccc([Si](C)(c2ccc(C)cc2)c2ccc(C)cc2)cc1
23,98 to 99,Cc1ccc2sc(C=O)cc2c1

row,melting point [°C],Structure (SMILES)
1,51,Cc1ccc(F)c(C#N)c1
2,197 to 198,Cc1nn(-c2ccccc2)nc1C(=O)NNC(=N)C(Cl)(Cl)Cl
3,48 to 50,CC(=O)c1ccc(F)cc1Br
4,138,COc1ccc(CCNCC(O)COc2cccc(C)c2)cc1OC (centres undefined)
5,197 to 201,C=C1C(C(=O)O)C1C(=O)O (centres undefined)
6,-41,C=COCCCCCCCCCC
7,101,N#Cc1ccc(F)cc1C#N
8,263,Cc1cc(C)n2nc(N)c(/N=N/c3cccc([N+](=O)[O-])c3)c2n1
9,-104,CCC(C)CCCCO (centres undefined)
10,196,CC(=O)c1nn(-c2cccc([N+](=O)[O-])c2)c(=NC(=O)c2ccccc2)s1
11,109 to 111,N#Cc1ccc(-c2ccsc2)cc1
12,77 to 80,CC1(C)CC(C(=O)Oc2ccc([N+](=O)[O-])cc2)C(C)(C)N1O (centres undefined)
13,118,CC12CCC(CC1=NO)C2(C)C (centres undefined)
14,-86.7,ClC=CBr
15,64 to 65,O=C1CCSc2ccc(Cl)cc21
16,51,COC(=O)CCc1cccc(CCC(=O)OC)c1
17,133 to 135,Cc1noc(-c2ccc(C=O)cc2)n1
18,241 to 242,Cc1ccc(-c2ccc3c(c2)C=CC(=C2C(=O)c4ccccc4C2=O)N3)cc1
19,94 to 99,CCCCCCc1ccc(C(=O)O)cc1
20,76 to 77,Cc1ncc(C=O)n1C
21,134,COC(=O)CCc1ccc2c(c1)CCC(=O)N2
22,292,Cn1c(=O)c(C2=NNC(=O)C2=Cc2ccccn2)c(O)c2ccccc21
23,172 to 177,COc1ccc(C2(C(=O)O)CCCCC2)cc1

row,melting point [°C],Structure (SMILES)
1,45 to 46,O=Cc1ccccc1N1CCOCC1
2,153 to 154,COC(=O)/C=C(/C(=O)OC)N(Nc1ccccc1N=Nc1ccccc1)c1ccccc1
3,66.5,Cc1ccc([N+](=O)[O-])cc1Cl
4,192 to 193,O=C1OC(c2ccccc2)=NC1=Cc1ccc(Cl)cc1
5,60 to 80,CCCCCCCCCCCCCCCCCCCCCCCCCCCCCC[Si](C)(C)Cl
6,81,O=Cc1cccc(Br)n1
7,48.5,CC(C)CC=NO
8,54,CC(=O)OCC1OC=CC(OC(C)=O)C1OC(C)=O (centres undefined)
9,87,Nc1c(Cl)cc(Br)cc1Cl
10,-56.4,C1=CCCC=CCC1
11,52,C1=NN(c2ccccc2)CC1
12,105 to 107,Oc1ccc2cc(Br)ccc2c1Br
13,147 to 148,N#CCc1nc(-c2ccc([N+](=O)[O-])cc2)cs1
14,36,COC(=O)C=Cc1ccccc1
15,239 to 241,O=C(O)c1ccc(-c2nccs2)cc1
16,78,COC(=O)C(NC(=O)OCc1ccccc1)P(=O)(OC)OC (centres undefined)
17,-59.3,CC(CBr)c1ccccc1 (centres undefined)
18,171 to 175,CC1(C)OC(=O)C(=C2CCCN2)C(=O)O1
19,93,Cc1nn2c(C)nnc2s1
20,181,O=C(Nc1ccccc1)OC1C=CC=CC(OC(=O)Nc2ccccc2)C1 (centres undefined)
21,285 to 287,O=C1CCC(c2ccc(NC(=O)c3ccc(F)cc3)cc2)=NN1
22,182 to 184,CC1N=C(S)N2C(C)N=C(S)N12 (centres undefined)
23,237 to 238,O=C(O)c1cnc2n(c1=O)CCS2

row,melting point [°C],Structure (SMILES)
1,278 to 282,Cc1c(C)c(C)c(C(=O)c2ccccc2C(=O)O)c(C)c1C
2,123 to 128,Clc1nc(-c2ccccc2)nc2ccccc12
3,119,CC(=O)OCC(OC(C)=O)C(OC(C)=O)C(OC(C)=O)C(OC(C)=O)C(OC(C)=O)OC(C)=O (centres undefined)
4,-122,CCCOCCC
5,277,O=C(O)C1CCCCN1 (centres undefined)
6,175,C#CC[C@H](NC(=O)OCC1c2ccccc2-c2ccccc21)C(=O)O
7,-21,COC(=O)CCCCCC(=O)OC
8,40,CCCCCCCCCCCCCCCCCC(=O)OCCOCCOCCOCCO
9,55.5,CC(=O)N(C)c1ccccc1C
10,95,CN1CCc2c(c3ccccc3n2Cc2ccccc2)C1
11,54,C1CSCSC1
12,209,Cc1cc(N=Nc2ccc(N=Nc3ccccc3)cc2)ccc1N=Nc1ccc(N=Nc2ccccc2)cc1
13,172,NC(=O)C=CC(=O)O
14,133,CC(=O)N1C(=O)[C@@](O)([C@H]2c3ccccc3O[C@@H]2Cl)c2ccccc21
15,138,O=C(c1ccc2c3c(cccc13)CC2)C(O)c1ccccc1 (centres undefined)
16,49,OCc1cccc(OCc2ccccc2)c1
17,36,CSc1ccccc1C#N
18,289,COc1cc(O)c2c(=O)cc(-c3ccc(O)cc3)oc2c1
19,156,O=C(OC(C(=O)c1ccc2c3c(cccc13)CC2)c1ccccc1)c1ccccc1 (centres undefined)
20,-55.4,CCCC(CC)c1ccccc1 (centres undefined)
21,135 to 139,COc1cc2c(cc1OC)C(CO)NCC2 (centres undefined)
22,161,CC(C)(C)c1cc(N)c(O)c(C(C)(C)C)c1
23,75 to 78,O=Cc1ccc(-c2ccccc2Cl)o1

row,melting point [°C],Structure (SMILES)
1,141,COc1ccc(C(=O)C2=NOC3C(=O)N(c4ccc(F)cc4)C(=O)C23)cc1 (centres undefined)
2,30,CCCCCCC(O)CCCCC (centres undefined)
3,70 to 72,COc1ccc(N(C)C(=S)Cl)cc1
4,192,CC(=O)CCc1oc2c(I)cc(I)cc2c1-c1ccc(C)o1
5,59,OCc1cc(C(F)(F)F)ccc1Cl
6,176,COc1ccc2c(c1OC)C(=O)OC2C1c2c(cc3c(c2OC)OCO3)CCN1C (centres undefined)
7,241 to 243,O=C(NC(NC(=O)c1ccccc1)c1ccccc1OCc1ccccc1Cl)c1ccccc1
8,180 to 183,O=c1[nH]c(=O)n(C2OC(CO)C(O)C2O)cc1F (centres undefined)
9,139,CCn1nc(C)cc1C(=O)O
10,217,CC1CC2C3CCC4=CC(=O)C=CC4(C)C3(F)C(O)CC2(C)C1C(=O)CO (centres undefined)
11,34,CCCCCCCCCCCCCCCCCCI
12,144 to 145,O=Cc1nc2ccccc2c2ncccc12
13,189,COc1nc(C)nc(NC(=O)NS(=O)(=O)c2ccccc2OCCCl)n1
14,120,Nc1ccc(CO)cn1
15,98,Cn1cc(Br)c(N)n1
16,236,CC(=O)Nc1ccc(/C=C/c2ccc([N+](=O)[O-])cc2)c([N+](=O)[O-])c1
17,85,Cc1cccc2c1Cc1ccccc1-2
18,200,Nc1ccc(CC(=O)O)cc1
19,147,COc1ccc(C(=O)C2=NOC3C(=O)N(c4cc(Cl)ccc4Cl)C(=O)C23)cc1 (centres undefined)
20,200,CC(=Nc1cccc(N)c1)c1c(O)c2ccccc2n(-c2ccccc2)c1=O
21,110,CCOC(=O)c1cn(C(C)=O)nc1N
22,94 to 96,CSc1ccc(C(F)(F)F)cc1[N+](=O)[O-]
23,175,O=C(O)c1ccc([N+](=O)[O-])c(F)c1

row,Structure (SMILES),melting point [°C]
1,O=C(O)C(Br)C(Br)C(=O)O (centres undefined),275
2,FC(F)(F)S(F)(F)(F)(F)F,-87
3,C=C1CC2CC(OC(=O)c3ccccc3)CCC2(C)C2CCC3(C)C(OC(=O)c4ccccc4)CCC3C12 (centres undefined),192
4,CCc1ccc([N+](=O)[O-])cc1,-12
5,CNC(=O)c1cc(C)cc(Cl)c1NC(=O)c1cc(Br)nn1-c1ncccc1Cl,209
6,CCCCCCCCC(=O)NCc1ccc(O)c(OC)c1,57
7,CN1C(=O)CN=C(c2ccccc2)c2cc([N+](=O)[O-])ccc21,157
8,C[C@]12CC[C@H]3[C@@H](CCC4CC(=O)CC[C@@]43C)C1=CCC2=O (some centres undefined),151
9,CC(=O)OC12COC1CC(O)C1(C)C(=O)C(O)C3=C(C)C(O)CC(O)(C(OC(=O)c4ccccc4)C21)C3(C)C (centres undefined),231 to 236
10,CCCN(CCC)c1c([N+](=O)[O-])cc(S(N)(=O)=O)cc1[N+](=O)[O-],141
11,O=[N+]([O-])c1ccc(Nc2ccccc2)cc1,135
12,Nc1ccc(Br)cc1C(=O)c1ccccc1F,100 to 104
13,CCOP(=S)(OCC)Oc1cc(C)nc(N(CC)CC)n1,15
14,CCN1CC2(COC)CCC(O)C34C5CC6C(OC)CC(O)(C5C6OC)C(O)(C(OC)C23)C14 (centres undefined),214
